In patent US6737383B1, “Herbicidal oxadiazolidines” (priority 1999, dated 2004):

Key:
bedstraw = assay: Test B pre/postemergence bedstraw; type: in vivo, Galium aparine
Outline: (§1)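 Herbicidal effect was estimated by eye on a ten-point control scale after plants spent twelve to sixteen days in a greenhouse following soil or foliar treatment. Foliar sprays targeted plants at one to four leaves; all doses were formulated in a non-phytotoxic solvent with surfactant.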

blackgrass = assay: Test B pre/postemergence blackgrass; type: in vivo, Alopecurus myosuroides
Outline: as §1

surinam grass = assay: Test B pre/postemergence surinam grass; type: in vivo, Brachiaria decumbens
Outline: as §1

cocklebur = assay: Test B pre/postemergence cocklebur; type: in vivo, Xanthium strumarium
Outline: as §1

corn = assay: Test B pre/postemergence corn; type: in vivo, Zea mays
Outline: as §1

giant foxtail = assay: Test B pre/postemergence giant foxtail; type: in vivo, Setaria faberii; details: for Plant response rating, Giant foxtail: scale of 0 to 10 where 0 is no effect and 10 is complete control
Outline: as §1

morningglory = assay: Test B pre/postemergence morningglory; type: in vivo, Ipomoea hederacea; details: for Plant response rating, Morningglory: scale of 0 to 10 where 0 is no effect and 10 is complete control
Outline: as §1

pigweed = assay: Test B pre/postemergence pigweed; type: in vivo, Amaranthus retroflexus; details: for Plant response rating, Redroot pigweed: scale of 0 to 10 where 0 is no effect and 10 is complete control
Outline: as §1

rape = assay: Test B pre/postemergence rape; type: in vivo, Brassica napus; details: for Plant response rating, Rape: scale of 0 to 10 where 0 is no effect and 10 is complete control
Outline: as §1

sugar beet = assay: Test B pre/postemergence sugar beet; type: in vivo, Beta vulgaris; details: for Plant response rating, Sugarbeets: scale of 0 to 10 where 0 is no effect and 10 is complete control
Outline: as §1

velvetleaf = assay: Test B pre/postemergence velvetleaf; type: in vivo, Abutilon theophrasti; details: for Plant response rating, Velvetleaf: scale of 0 to 10 where 0 is no effect and 10 is complete control
Outline: as §1

purple nutsedge = assay: Test B pre/postemergence purple nutsedge; type: in vivo, Cyperus rotundus; details: for Plant response rating, Nutsedge: scale of 0 to 10 where 0 is no effect and 10 is complete control
Outline: as §1

rice = assay: Test B flood test rice; type: in vivo, Oryza sativa
Outline: (§2)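 Flood test on plants grown to the 2-leaf stage; treated plants kept in greenhouse twelve to sixteen days, then visually rated against controls on a 0 (no effect) to 10 (complete control) scale.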

duck salad = assay: Test B flood test duck salad; type: in vivo, Heteranthera limosa
Outline: as §2

bamyardgrass = assay: Test B flood test barnyardgrass; type: in vivo, Echinochloa crus-galli
Outline: as §2

[1] = Postemergence, Rate 250 g/ha, scale 0 to 10
[2] = Preemergence, Rate 250 g/ha, scale 0 to 10, 0 is no effect, 10 is complete control
[3] = Preemergence, Rate 500 g/ha, scale 0 to 10, 0 is no effect, 10 is complete control
[4] = Rate 62 g/ha, Postemergence, scale 0 to 10 (0 no effect, 10 complete control)
[5] = Rate 125 g/ha, Postemergence, scale 0 to 10, 0 is no effect, 10 is complete control
[6] = Postemergence, Rate 500 g/ha, scale of 0 to 10 where 0 is no effect and 10 is complete control
[7] = Preemergence, Rate 62 g/ha, scale of 0 to 10 where 0 is no effect and 10 is complete control
[8] = Preemergence, Rate 125 g/ha, scale of 0 to 10 where 0 is no effect and 10 is complete control
[9] = Rate 62 g/ha, flood test species, Pre-emergence, visual evaluation after twelve to sixteen days
[10] = Rate 125 g/ha, under heading Pre-emergence, flood test species, visual evaluation after twelve to sixteen days
[11] = Rate 250 g/ha, Pre-emergence (flood test species), scale 0 to 10, 0 is no effect, 10 is complete control
[12] = Rate 500 g/ha, Pre-emergence, flood test species, scale 0 to 10 (0 no effect, 10 complete control)

For `CC(C)N(C(=O)n1oc(=O)n(C(C)C(=O)N(C)C)c1=O)c1ccccc1` (stereo not drawn) [Compound 479], the “Bedstraw plant response rating” value (bedstraw; [1]) was 0, the “Bedstraw plant response rating” value (bedstraw; [2]) was 0 and the “Bedstraw plant response rating” value (bedstraw; [3]) was 0. The “Bedstraw plant response rating” value (bedstraw; [4]) was 0, the “Bedstraw plant response rating” value (bedstraw; [5]) was 0 and the “Blackgrass plant response rating” value (blackgrass; [1]) was 4. The “Blackgrass plant response rating” value (blackgrass; [6]) was 7, the “Plant response rating, Blackgrass” value (blackgrass; [7]) was 2 and the “Plant response rating, Blackgrass” value (blackgrass; [8]) was 6. The “Blackgrass plant response rating” value (blackgrass; [2]) was 8, the “Blackgrass plant response rating” value (blackgrass; [3]) was 9 and the “Blackgrass plant response rating” value (blackgrass; [4]) was 0. For the same compound, the “Blackgrass plant response rating” value (blackgrass; [5]) was 0, the “B. signalgrass plant response rating” value (surinam grass; Postemergence, Rate 250 g/ha, scale 0 to 10, 0 no effect, 10 complete control) was 3 and the “B. signalgrass plant response rating” value (surinam grass; [6]) was 7. The “Plant response rating, B. signalgrass” value (surinam grass; [7]) was 0, the “Plant response rating, B. signalgrass” value (surinam grass; [8]) was 5 and the “B. signalgrass plant response rating” value (surinam grass; [2]) was 6. The “B. signalgrass plant response rating” value (surinam grass; [3]) was 9, the “B. signalgrass plant response rating” value (surinam grass; [4]) was 0 and the “B. signalgrass plant response rating” value (surinam grass; [5]) was 2. The “Cocklebur plant response rating” value (cocklebur; [1]) was 0, the “Cocklebur plant response rating” value (cocklebur; [6]) was 0 and the “Plant response rating, Cocklebur” value (cocklebur; [7]) was 0. For the same compound, the “Plant response rating, Cocklebur” value (cocklebur; [8]) was 0, the “Cocklebur plant response rating” value (cocklebur; [2]) was 0 and the “Cocklebur plant response rating” value (cocklebur; [4]) was 0. For the same compound, the “Cocklebur plant response rating” value (cocklebur; [5]) was 0, the “Corn plant response rating” value (corn; [1]) was 0 and the “Corn plant response rating” value (corn; [6]) was 4. For the same compound, the “Plant response rating, Corn” value (corn; [7]) was 0, the “Plant response rating, Corn” value (corn; [8]) was 0 and the “Corn plant response rating” value (corn; [2]) was 0. The “Corn plant response rating” value (corn; [3]) was 3, the “Corn plant response rating” value (corn; [4]) was 0 and the “Corn plant response rating” value (corn; [5]) was 0. The “Giant foxtail plant response rating” value (giant foxtail; [1]) was 6, the “Plant response rating, Giant foxtail” value (giant foxtail; Preemergence, Rate 62 g/ha) was 7 and the “Plant response rating, Giant foxtail” value (giant foxtail; Preemergence, Rate 125 g/ha) was 9. For the same compound, the “Giant foxtail plant response rating” value (giant foxtail; [2]) was 10, the “Giant foxtail plant response rating” value (giant foxtail; [3]) was 10 and the “Giant foxtail plant response rating” value (giant foxtail; [4]) was 0. For the same compound, the “Giant foxtail plant response rating” value (giant foxtail; [5]) was 3, the “Morningglory plant response rating” value (morningglory; [1]) was 10 and the “Plant response rating, Morningglory” value (morningglory; Preemergence, Rate 62 g/ha) was 0. For the same compound, the “Plant response rating, Morningglory” value (morningglory; Preemergence, Rate 125 g/ha) was 0, the “Morningglory plant response rating” value (morningglory; [2]) was 4 and the “Morningglory plant response rating” value (morningglory; [3]) was 4. The “Morningglory plant response rating” value (morningglory; [4]) was 7, the “Morningglory plant response rating” value (morningglory; [5]) was 10 and the “Redroot pigweed plant response rating” value (pigweed; [1]) was 2. For the same compound, the “Plant response rating, Redroot pigweed” value (pigweed; Preemergence, Rate 62 g/ha) was 0, the “Plant response rating, Redroot pigweed” value (pigweed; Preemergence, Rate 125 g/ha) was 3 and the “Redroot pigweed plant response rating” value (pigweed; [2]) was 6. The “Redroot pigweed plant response rating” value (pigweed; [3]) was 6, the “Redroot pigweed plant response rating” value (pigweed; [4]) was 0 and the “Redroot pigweed plant response rating” value (pigweed; [5]) was 2. The “Rape plant response rating” value (rape; [1]) was 0, the “Plant response rating, Rape” value (rape; Preemergence, Rate 62 g/ha) was 0 and the “Plant response rating, Rape” value (rape; Preemergence, Rate 125 g/ha) was 0. The “Rape plant response rating” value (rape; [2]) was 1, the “Rape plant response rating” value (rape; [3]) was 4 and the “Rape plant response rating” value (rape; [4]) was 0. For the same compound, the “Rape plant response rating” value (rape; [5]) was 0, the “Sugarbeets plant response rating” value (sugar beet; [1]) was 0 and the “Plant response rating, Sugarbeets” value (sugar beet; Preemergence, Rate 62 g/ha) was 0. For the same compound, the “Plant response rating, Sugarbeets” value (sugar beet; Preemergence, Rate 125 g/ha) was 0, the “Sugarbeets plant response rating” value (sugar beet; [2]) was 2 and the “Sugarbeets plant response rating” value (sugar beet; [3]) was 4. For the same compound, the “Sugarbeets plant response rating” value (sugar beet; [4]) was 0, the “Sugarbeets plant response rating” value (sugar beet; [5]) was 0 and the “Velvetleaf plant response rating” value (velvetleaf; [1]) was 0. For the same compound, the “Plant response rating, Velvetleaf” value (velvetleaf; Preemergence, Rate 62 g/ha) was 0, the “Plant response rating, Velvetleaf” value (velvetleaf; Preemergence, Rate 125 g/ha) was 0 and the “Velvetleaf plant response rating” value (velvetleaf; [2]) was 1. For the same compound, the “Velvetleaf plant response rating” value (velvetleaf; [3]) was 5, the “Velvetleaf plant response rating” value (velvetleaf; [4]) was 0 and the “Velvetleaf plant response rating” value (velvetleaf; [5]) was 0. The “Nutsedge plant response rating” value (purple nutsedge; [1]) was 0, the “Plant response rating, Nutsedge” value (purple nutsedge; Preemergence, Rate 62 g/ha) was 0 and the “Plant response rating, Nutsedge” value (purple nutsedge; Preemergence, Rate 125 g/ha) was 0. For the same compound, the “Nutsedge plant response rating” value (purple nutsedge; [2]) was 0, the “Nutsedge plant response rating” value (purple nutsedge; [4]) was 0 and the “Nutsedge plant response rating” value (purple nutsedge; [5]) was 0. The “Plant response rating, Rice (0 to 10 scale, 0 is no effect, 10 is complete control)” value (rice; [9]) was 0, the “Rice plant response rating (0 to 10 scale, 0 is no effect, 10 is complete control)” value (rice; [10]) was 0 and the “Rice plant response rating” value (rice; [11]) was 0. For the same compound, the “Rice plant response rating” value (rice; [12]) was 0, the “Plant response rating, Ducksalad (0 to 10 scale, 0 is no effect, 10 is complete control)” value (duck salad; [9]) was 0 and the “Ducksalad plant response rating (0 to 10 scale, 0 is no effect, 10 is complete control)” value (duck salad; [10]) was 0. For the same compound, the “Ducksalad plant response rating” value (duck salad; [11]) was 0, the “Ducksalad plant response rating” value (duck salad; [12]) was 0 and the “Plant response rating, Barnyardgrass (0 to 10 scale, 0 is no effect, 10 is complete control)” value (bamyardgrass; [9]) was 0. For the same compound, the “Barnyardgrass plant response rating (0 to 10 scale, 0 is no effect, 10 is complete control)” value (bamyardgrass; [10]) was 0, the “Barnyardgrass plant response rating” value (bamyardgrass; [11]) was 0 and the “Barnyardgrass plant response rating” value (bamyardgrass; [12]) was 0.
